From PubChem BioAssay (NCI)
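Cells were grown in 96-well plates and exposed to each compound for 48 hours at five concentrations; endpoints were interpolated linearly between bracketing concentrations, or set to the highest concentration if not reached. GI50 marks 50% less growth. TGI: concentration producing complete growth inhibition.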

Columns and labels:
Assay in all cases: NCI tumour cell line growth inhibition, 48 h
U251 CNS = system: U251 CNS
MCF7 breast = system: MCF7 breast
MDA-MB-468 breast = system: MDA-MB-468 breast
NCI-H23 lung = system: NCI-H23 lung
COLO 205 colon = system: COLO 205 colon
HCT-15 colon = system: HCT-15 colon
SK-OV-3 ovarian = system: SK-OV-3 ovarian
CAKI-1 renal = system: CAKI-1 renal
SF-268 CNS = system: SF-268 CNS
OVCAR-5 ovarian = system: OVCAR-5 ovarian
HOP-92 NSCLC = system: HOP-92 NSCLC
SN12C renal = system: SN12C renal
LOX IMVI melanoma = system: LOX IMVI melanoma
HL-60(TB) leukemia = system: HL-60(TB) leukemia
OVCAR-3 ovarian = system: OVCAR-3 ovarian
A498 renal = system: A498 renal
HCC-2998 colon = system: HCC-2998 colon
DU-145 prostate = system: DU-145 prostate
OVCAR-8 ovarian = system: OVCAR-8 ovarian
BT-549 breast = system: BT-549 breast
EKVX NSCLC = system: EKVX NSCLC
786-0 renal = system: 786-0 renal
NCI-H522 lung = system: NCI-H522 lung
SK-MEL-28 melanoma = system: SK-MEL-28 melanoma
RXF 393 renal = system: RXF 393 renal
SW-620 colon = system: SW-620 colon
UACC-257 melanoma = system: UACC-257 melanoma
K-562 leukemia = system: K-562 leukemia
NCI/ADR-RES ovarian = system: NCI/ADR-RES ovarian
CCRF-CEM leukemia = system: CCRF-CEM leukemia
KM12 colon = system: KM12 colon
T-47D breast = system: T-47D breast
RPMI-8226 leukemia = system: RPMI-8226 leukemia
SK-MEL-5 melanoma = system: SK-MEL-5 melanoma
MOLT-4 leukemia = system: MOLT-4 leukemia
TK-10 renal = system: TK-10 renal
A549 NSCLC = system: A549 NSCLC
M14 melanoma = system: M14 melanoma
SR leukemia = system: SR leukemia
NCI-H460 lung = system: NCI-H460 lung
SK-MEL-2 melanoma = system: SK-MEL-2 melanoma
MDA-MB-435 = system: MDA-MB-435
UO-31 renal = system: UO-31 renal
SNB-19 CNS = system: SNB-19 CNS
SF-539 CNS = system: SF-539 CNS
MDA-MB-231 breast = system: MDA-MB-231 breast
IGROV1 ovarian = system: IGROV1 ovarian
SF-295 CNS = system: SF-295 CNS
MALME-3M melanoma = system: MALME-3M melanoma
NCI-H226 lung = system: NCI-H226 lung
HCT-116 colon = system: HCT-116 colon
HS 578T breast = system: HS 578T breast
HOP-62 NSCLC = system: HOP-62 NSCLC
UACC-62 melanoma = system: UACC-62 melanoma
HT29 colon = system: HT29 colon
OVCAR-4 ovarian = system: OVCAR-4 ovarian
ACHN renal = system: ACHN renal
PC-3 prostate = system: PC-3 prostate

`O=C(NNc1nc2cc(F)ccc2n2c(CN3CCCCC3)ccc12)c1cnccn1` was tested, and the GI50 (U251 CNS) was 967 nM, the TGI (U251 CNS) was 11700 nM and the GI50 (MCF7 breast) was 1580 nM. It also gave a TGI (MCF7 breast) of 10300 nM, a GI50 (MDA-MB-468 breast) of 1200 nM and a TGI (MDA-MB-468 breast) of 3100 nM. For the same compound, the GI50 (NCI-H23 lung) was 1390 nM, the TGI (NCI-H23 lung) was 3430 nM and the GI50 (COLO 205 colon) was 1160 nM. For the same compound, the TGI (COLO 205 colon) was 9740 nM, the GI50 (HCT-15 colon) was 190 nM and the TGI (HCT-15 colon) was 12800 nM. The GI50 (SK-OV-3 ovarian) was 1170 nM, the TGI (SK-OV-3 ovarian) was 10900 nM and the GI50 (CAKI-1 renal) was 918 nM. The TGI (CAKI-1 renal) was 11000 nM, the GI50 (SF-268 CNS) was 1330 nM and the TGI (SF-268 CNS) was 11800 nM. The GI50 (OVCAR-5 ovarian) was 1350 nM, the TGI (OVCAR-5 ovarian) was 7230 nM and the GI50 (HOP-92 NSCLC) was 1190 nM. For the same compound, the TGI (HOP-92 NSCLC) was 5370 nM, the GI50 (SN12C renal) was 1290 nM and the TGI (SN12C renal) was 8500 nM. It also gave a GI50 (LOX IMVI melanoma) of 682 nM, a TGI (LOX IMVI melanoma) of 2880 nM and a GI50 (HL-60(TB) leukemia) of 340 nM. It also gave a TGI (HL-60(TB) leukemia) of 1640 nM, a GI50 (OVCAR-3 ovarian) of 2040 nM and a TGI (OVCAR-3 ovarian) of 16000 nM. The GI50 (A498 renal) was 13900 nM, the TGI (A498 renal) was 26900 nM and the GI50 (HCC-2998 colon) was 1140 nM. The TGI (HCC-2998 colon) was 11600 nM, the GI50 (DU-145 prostate) was 1410 nM and the TGI (DU-145 prostate) was 11800 nM. It also gave a GI50 (OVCAR-8 ovarian) of 944 nM, a TGI (OVCAR-8 ovarian) of 5270 nM and a GI50 (BT-549 breast) of 1570 nM. The TGI (BT-549 breast) was 12700 nM, the GI50 (EKVX NSCLC) was 525 nM and the TGI (EKVX NSCLC) was 3760 nM. The GI50 (786-0 renal) was 1320 nM, the TGI (786-0 renal) was 4360 nM and the GI50 (NCI-H522 lung) was 1360 nM. For the same compound, the TGI (NCI-H522 lung) was 5100 nM, the GI50 (SK-MEL-28 melanoma) was 2700 nM and the TGI (SK-MEL-28 melanoma) was 13300 nM. For the same compound, the GI50 (RXF 393 renal) was 1690 nM, the TGI (RXF 393 renal) was 5620 nM and the GI50 (SW-620 colon) was 1070 nM. The TGI (SW-620 colon) was 10700 nM, the GI50 (UACC-257 melanoma) was 2730 nM and the TGI (UACC-257 melanoma) was 9770 nM. For the same compound, the GI50 (K-562 leukemia) was 1220 nM, the TGI (K-562 leukemia) was 4580 nM and the GI50 (NCI/ADR-RES ovarian) was 514 nM. The TGI (NCI/ADR-RES ovarian) was 2290 nM, the GI50 (CCRF-CEM leukemia) was 462 nM and the TGI (CCRF-CEM leukemia) was 3170 nM. It also gave a GI50 (KM12 colon) of 1170 nM, a TGI (KM12 colon) of 12400 nM and a GI50 (T-47D breast) of 2070 nM. The TGI (T-47D breast) was 10200 nM, the GI50 (RPMI-8226 leukemia) was 953 nM and the TGI (RPMI-8226 leukemia) was 12100 nM. It also gave a GI50 (SK-MEL-5 melanoma) of 1810 nM, a TGI (SK-MEL-5 melanoma) of 8100 nM and a GI50 (MOLT-4 leukemia) of 388 nM. For the same compound, the TGI (MOLT-4 leukemia) was 2320 nM, the GI50 (TK-10 renal) was 969 nM and the TGI (TK-10 renal) was 10200 nM. For the same compound, the GI50 (A549 NSCLC) was 1220 nM, the TGI (A549 NSCLC) was 11800 nM and the GI50 (M14 melanoma) was 1490 nM. It also gave a TGI (M14 melanoma) of 5540 nM, a GI50 (SR leukemia) of 288 nM and a TGI (SR leukemia) of 2210 nM. The GI50 (NCI-H460 lung) was 392 nM, the TGI (NCI-H460 lung) was 3150 nM and the GI50 (SK-MEL-2 melanoma) was 2130 nM. For the same compound, the TGI (SK-MEL-2 melanoma) was 12400 nM, the GI50 (MDA-MB-435) was 2740 nM and the TGI (MDA-MB-435) was 13900 nM. The GI50 (UO-31 renal) was 330 nM, the TGI (UO-31 renal) was 4910 nM and the GI50 (SNB-19 CNS) was 1540 nM. The TGI (SNB-19 CNS) was 12000 nM, the GI50 (SF-539 CNS) was 1140 nM and the TGI (SF-539 CNS) was 6940 nM. For the same compound, the GI50 (MDA-MB-231 breast) was 1260 nM, the TGI (MDA-MB-231 breast) was 10400 nM and the GI50 (IGROV1 ovarian) was 894 nM. For the same compound, the TGI (IGROV1 ovarian) was 5060 nM, the GI50 (SF-295 CNS) was 599 nM and the TGI (SF-295 CNS) was 6270 nM. For the same compound, the GI50 (MALME-3M melanoma) was 2310 nM, the TGI (MALME-3M melanoma) was 8940 nM and the GI50 (NCI-H226 lung) was 1640 nM. For the same compound, the TGI (NCI-H226 lung) was 6800 nM, the GI50 (HCT-116 colon) was 701 nM and the TGI (HCT-116 colon) was 12500 nM. The GI50 (HS 578T breast) was 2620 nM, the TGI (HS 578T breast) was 18000 nM and the GI50 (HOP-62 NSCLC) was 1140 nM. It also gave a TGI (HOP-62 NSCLC) of 7910 nM, a GI50 (UACC-62 melanoma) of 1280 nM and a TGI (UACC-62 melanoma) of 3240 nM. It also gave a GI50 (HT29 colon) of 474 nM, a TGI (HT29 colon) of 13300 nM and a GI50 (OVCAR-4 ovarian) of 842 nM. The TGI (OVCAR-4 ovarian) was 4550 nM, the GI50 (ACHN renal) was 763 nM and the TGI (ACHN renal) was 7910 nM. For the same compound, the GI50 (PC-3 prostate) was 1220 nM and the TGI (PC-3 prostate) was 6720 nM.
